Test results published in article PMC8580319, “Dual activities of ACC synthase: Novel clues regarding the molecular evolution of ACS genes” (Science Advances, 2021).
Changes are numbered by the printed parent chain. Values belong to the molecule of their own block, whether it stands above or below them.

Key:
[1] = molecular target: AtACS7-R6 (AtACS7 in which BOX2 is replaced by PpACL1-BOX2) (Arabidopsis | Physcomitrella patens); assay: crystal structure; AtACS7-R6 with PPG (1 mM PLP and AVG added), hanging drop, 0.1 M Hepes pH 7.6, 6% PEG-10000; 2.95 Å; one dimer in the asymmetric unit
[2] = molecular target: T1, AtACS7 (Arabidopsis thaliana, UniProt Q9STR4); assay: inhibition of Cβ-S lyase activity, pyruvate assay; format: biochemical; conditions: L-cystine 4 mM, 100 μM PLP, 30°C; forms adduct with PLP
T1 construct: gene ACS7; recombinant from E. coli Rosetta 2 (DE3) pLysS; pET-28a (His) or pGEX-6p-1 (GST); His-tagged protein for crystals; dimer
T1 sequence (Q9STR4 1-447): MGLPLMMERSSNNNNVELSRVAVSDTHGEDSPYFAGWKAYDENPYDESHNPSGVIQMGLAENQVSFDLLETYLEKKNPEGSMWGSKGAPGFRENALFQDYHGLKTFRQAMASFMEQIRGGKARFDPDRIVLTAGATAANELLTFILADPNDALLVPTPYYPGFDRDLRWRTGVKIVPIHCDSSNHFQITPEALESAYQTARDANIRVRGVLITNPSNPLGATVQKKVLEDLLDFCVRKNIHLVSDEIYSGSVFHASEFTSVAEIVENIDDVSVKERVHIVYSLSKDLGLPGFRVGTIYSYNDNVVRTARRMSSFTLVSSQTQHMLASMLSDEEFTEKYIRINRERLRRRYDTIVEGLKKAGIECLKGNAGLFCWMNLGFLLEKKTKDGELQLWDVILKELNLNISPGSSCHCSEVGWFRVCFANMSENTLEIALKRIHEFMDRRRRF

[3] = molecular target: T1, AtACS7; assay: Cβ-S lyase activity with and without PLP, pyruvate assay; format: biochemical; conditions: L-cystine 4 mM, 30°C
[4] = molecular target: T2, AtACS7 (Arabidopsis thaliana, UniProt Q9STR4, D245N); assay: ACC formation, converted to ethylene, GC; format: biochemical; conditions: ACS activity, reduced; 0.4 mM SAM, pH 8.5, 30°C, 10 μM PLP
T2 construct: gene ACS7; recombinant from E. coli Rosetta 2 (DE3) pLysS; pET-28a (His) or pGEX-6p-1 (GST); His-tagged protein for crystals; dimer
T2 sequence (Q9STR4 1-447 D245N): T1 sequence (Q9STR4 1-447) with D245N

[5] = molecular target: the molecule itself; assay: crystal structure; AtACS7 with PPG (1 mM PLP and AVG added), hanging drop, 0.1 M tris pH 8.6, 23% PEG-3350; 2.20 Å; four complexes as two dimers in the asymmetric unit

stoichiometry N [1]: 2
Molecule: AtACS7-R6 (AtACS7 in which BOX2 is replaced by PpACL1-BOX2) (enzyme)

Molecule: NCCO/C=C/[C@H](N)C(=O)O [AVG]
inhibition at 5 μM [2]: could be totally suppressed by adding AVG to the reaction mixture

Molecule: Cc1ncc(COP(=O)(O)O)c(C=O)c1O [PLP]
Cβ-S lyase activity with and without PLP, pyruvate assay [3]: The Cβ-S lyase activity of AtACS7 was also PLP dependent

Molecule: C[S+](CC[C@H](N)C(=O)O)C[C@H]1O[C@@H](n2cnc3c(N)ncnc32)[C@H](O)[C@@H]1O (some centres unmarked) [SAM]
ACC formation, converted to ethylene, GC [4]: mutant still retained considerable, albeit reduced, ACS activity

B1: Arabidopsis ACS7 (AtACS7), 1-aminocyclopropane-1-carboxylate (ACC) synthase 7 (enzyme)
chain: T1 sequence (Q9STR4 1-447)
notes: ACC synthase 7 (AtACS7) of Arabidopsis thaliana, TAIR locus AT4G26200; vector pET-28a or pGEX-6p-1 per the methods, HisTrap purification points to the His form; also called wild-type AtACS7; source: E. coli BL21 [Rosetta 2 (DE3) plysS], purified (HisTrap, Hitrap Q HP ion exchange, Superdex 200 gel filtration)
stoichiometry N [5]: 2
